Data: ChEMBL document CHEMBL3612000, “Synthesis, leishmanicidal, trypanocidal and cytotoxic activity of quinoline-hydrazone hybrids” (Eur J Med Chem, 2015)
Values after ≈ are worked out from the molar mass of the structure shown.

Key:
Leishmania panamensis [1] = assay: Leishmanicidal activity against intracellular amastigotes of Leishmania (Viannia) panamensis MHOM/CO/87/UA140pIR-GFP infected in human U937 cells assessed as decrease of intracellular parasite load after 72 hrs; type: functional, organism-based, U-937
[2] = Selectivity index, ratio of LC50 for human U937 cells to EC50 for intracellular amastigotes of Leishmania (Viannia) panamensis MHOM/CO/87/UA140pIR-GFP; type: toxicity, cell-based, U-937
[3] = (§1) Cytotoxicity against human U937 cells assessed as cell viability after 72 hrs by MTT assay; type: cell-based, U-937; settings: U937 cells, read-out: LC50
Leishmania panamensis [4] = assay: Leishmanicidal activity against intracellular amastigotes of Leishmania (Viannia) panamensis MHOM/CO/87/UA140pIR-GFP infected in human U937 cells assessed as decrease of intracellular parasite load at 5 ug/ml after 72 hrs; type: functional; settings: U-937, 72 h
U-937 = assay: as §1; type: cell-based; settings: u-937, 72 h, read-out: LC50 (the source's name)
Leishmania panamensis [5] = assay: Leishmanicidal activity against intracellular amastigotes of Leishmania (Viannia) panamensis MHOM/CO/87/UA140pIR-GFP infected in human U937 cells assessed as decrease of intracellular parasite load at 20 ug/ml after 72 hrs; type: functional; settings: U-937, 72 h
Trypanosoma cruzi [6] = assay: Trypanocidal activity against intracellular amastigotes of Trypanosoma cruzi Tulahuen infected in human U937 cells assessed as reduction of viability of intracellular amastigotes by measuring beta-galactosidase activity at 20 ug/ml after 72 hrs by spectrophotometry analysis; type: functional; settings: U-937, 72 h
Trypanosoma cruzi [7] = assay: Trypanocidal activity against intracellular amastigotes of Trypanosoma cruzi Tulahuen infected in human U937 cells assessed as reduction of viability of intracellular amastigotes by measuring beta-galactosidase activity after 72 hrs by spectrophotometry analysis; type: functional, organism-based; settings: U-937, 72 h
[8] = Selectivity index, ratio of LC50 for human U937 cells to EC50 for intracellular amastigotes of Trypanosoma cruzi Tulahuen; type: toxicity, cell-based, U-937
Trypanosoma cruzi [9] = assay: Trypanocidal activity against intracellular amastigotes of Trypanosoma cruzi Tulahuen infected in human U937 cells assessed as reduction of viability of intracellular amastigotes by measuring beta-galactosidase activity at 5 ug/ml after 72 hrs by spectrophotometry analysis; type: functional; settings: U-937, 72 h
Leishmania panamensis [10] = assay: Leishmanicidal activity against intracellular amastigotes of Leishmania (Viannia) panamensis MHOM/CO/87/UA140pIR-GFP infected in human U937 cells assessed as decrease of intracellular parasite load at 10 ug/ml after 72 hrs; type: functional
Leishmania major = assay: Antileishmanial activity against Leishmania major; type: functional, organism-based
Trypanosoma cruzi [11] = assay: Trypanocidal activity against intracellular amastigotes of Trypanosoma cruzi Tulahuen infected in human U937 cells assessed as reduction of viability of intracellular amastigotes by measuring beta-galactosidase activity at 10 ug/ml after 72 hrs by spectrophotometry analysis; type: functional; settings: U-937, 72 h
Leishmania panamensis [12] = assay: Leishmanicidal activity against intracellular amastigotes of Leishmania (Viannia) panamensis MHOM/CO/87/UA140pIR-GFP infected in human U937 cells assessed as decrease of intracellular parasite load at 1 ug/ml after 72 hrs; type: functional; settings: U-937, 72 h
Leishmania panamensis [13] = assay: Leishmanicidal activity against intracellular amastigotes of Leishmania (Viannia) panamensis MHOM/CO/87/UA140pIR-GFP infected in human U937 cells assessed as decrease of intracellular parasite load at 0.05 ug/ml after 72 hrs; type: functional; settings: U-937, 72 h
[14] = Leishmania panamensis, MHOM/CO/87/UA140pIR-GFP, U-937, 72 h, read-out: EC50

Row | Compound | EC50 (Leishmania panamensis [1]; [14]) | selectivity ratio [2] | CC50 at 72 h [3] | inhibition at 20 µg/mL (Leishmania panamensis [5]) | inhibition at 20 µg/mL (Trypanosoma cruzi [6]) | also measured
1 | O=C(N/N=C/c1ccc(O)cc1O)c1nccc2ccccc12 | 3.4 µg/mL (≈ 11.1 µM) | 2.6 | 28.6 µM | – | – | inhibition at 5 µg/mL (Leishmania panamensis [4]): 62.6%
2 | MEGLUMINE ANTIMONATE [listing 1 of 2 here] | – | – | – | – | – | EC50 (Leishmania panamensis [1]; u-937): 6.3 µg/mL; Ratio ([2]; u-937): 78.6; CC50 (U-937): 6 µM
3 | O=C(N/N=C/c1cc(O)ccc1O)c1ccc2ccccc2n1 | 37.2 µg/mL (≈ 121 µM) | 2.8 | 159 µM | 64% | 24% | –
4 | O=C(N/N=C/c1ccccc1O)c1ccc2ccccc2n1 | – | – | 56 µM | 16.8% | – | EC50 (Trypanosoma cruzi [7]): 1.4 µg/mL (≈ 4.81 µM); selectivity ratio [8]: 11.6; inhibition at 5 µg/mL (Trypanosoma cruzi [9]): 50.4%
5 | O=C(N/N=C/c1cc(O)ccc1O)c1ccnc2ccccc12 | – | – | > 651 µM | 26.1% | 20.7% | –
6 | MEGLUMINE ANTIMONATE [listing 2 of 2 here] | – | – | – | – | – | inhibition (Leishmania panamensis [10]; U-937): 79.4%
7 | O=C(N/N=C/c1cccc(O)c1O)c1ccnc2ccccc12 | – | – | 47.5 µM | – | 27.4% | inhibition at 10 µg/mL (Leishmania panamensis [10]; U-937, 72 h): 47.4%
8 | O=C(N/N=C/c1cccc(O)c1O)c1ccc2ccccc2n1 | 6.5 µg/mL (≈ 21.2 µM) | 4.7 | 99.6 µM | 75.7% | 31% | –
9 | CCN(CC)NC(=O)c1ccc(OCc2ccccc2)cc1 | – | – | – | – | – | IC50 (Leishmania major): 21 µM
10 | O=C(N/N=C/c1ccc(O)cc1O)c1ccnc2ccccc12 | – | – | 34.5 µM | – | – | inhibition at 10 µg/mL (Trypanosoma cruzi [11]): 27.7%; EC50 (Trypanosoma cruzi [7]): 20.8 µg/mL (≈ 67.7 µM); selectivity ratio [8]: 0.5
11 | O=C(N/N=C/c1ccc(O)cc1O)c1ccc2ccccc2n1 | 0.8 µg/mL (≈ 2.6 µM) | 4.5 | 11.7 µM | – | – | EC50 (Trypanosoma cruzi [7]): 6.6 µg/mL (≈ 21.5 µM); selectivity ratio [8]: 0.5; inhibition at 1 µg/mL (Leishmania panamensis [12]): 64.7%; inhibition at 5 µg/mL (Trypanosoma cruzi [9]): 41.5%
12 | O=C(N/N=C/c1ccc(O)c(O)c1O)c1ccc2ccccc2n1 | 15.4 µg/mL (≈ 47.6 µM) | 4.6 | 221 µM | 68.2% | 36.1% | –
13 | O=C(Cn1ccnc1[N+](=O)[O-])NCc1ccccc1 [BENZNIDAZOLE] | – | – | – | – | 87.6% | EC50 (Trypanosoma cruzi [7]): 10.5 µg/mL (≈ 40.3 µM); selectivity ratio [8]: 17
14 | O=C(N/N=C/c1ccc(O)c(O)c1O)c1ccnc2ccccc12 | – | – | 347 µM | 21.3% | 15.7% | –
15 | C[C@@H]1[C@H](O)[C@@H](C)/C=C/C=C/C=C/C=C/C=C/C=C/C=C/[C@H](O[C@@H]2O[C@H](C)[C@@H](O)[C@H](N)[C@@H]2O)C[C@@H]2O[C@](O)(C[C@@H](O)C[C@@H](O)[C@H](O)CC[C@@H](O)C[C@@H](O)CC(=O)O[C@H]1C)C[C@H](O)[C@H]2C(=O)O [AMPHOTERICIN B] | – | 1050 | 45.6 µM | – | – | inhibition at 0.05 µg/mL (Leishmania panamensis [13]): 76%
